From patent US20250230193A1, “CYCLIC COMPOUND HAVING SELECTIVE KRAS INHIBITORY EFFECT ON HRAS AND NRAS” (CHUGAI SEIYAKU KABUSHIKI KAISHA, priority 2022, published 2025)

Tests used:
[1] = molecular target: GDP-bound NRAS wild-type protein (Homo sapiens, UniProt P01111); assay: Binding to NRAS by surface plasmon resonance (SPR), Single Cycle Kinetics; settings: KD ratio NRAS/KRAS, class symbols
[2] = molecular target: GDP-bound HRAS wild-type protein (Homo sapiens, UniProt P01112); assay: Binding to HRAS by surface plasmon resonance (SPR), Single Cycle Kinetics; settings: KD ratio HRAS/KRAS, class symbols
Chain of GDP-bound HRAS wild-type protein (P01112 whole entry): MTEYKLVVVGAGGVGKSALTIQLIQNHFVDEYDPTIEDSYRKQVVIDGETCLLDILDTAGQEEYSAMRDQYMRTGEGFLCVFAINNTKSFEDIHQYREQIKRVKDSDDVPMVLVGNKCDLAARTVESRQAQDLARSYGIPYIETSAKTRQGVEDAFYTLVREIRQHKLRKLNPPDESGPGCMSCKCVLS

Chain of GDP-bound NRAS wild-type protein (P01111 whole entry): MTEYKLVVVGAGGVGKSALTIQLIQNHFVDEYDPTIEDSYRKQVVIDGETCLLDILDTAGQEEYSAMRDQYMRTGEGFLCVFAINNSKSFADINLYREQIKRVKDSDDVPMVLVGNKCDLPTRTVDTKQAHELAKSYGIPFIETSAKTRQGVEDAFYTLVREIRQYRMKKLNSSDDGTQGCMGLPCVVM

Row | SMILES | NRAS/KRAS (ratio of KD value with respect to GDP-bound NRAS wild-type protein to KD value with respect to KRAS) [1] | HRAS/KRAS (ratio of KD value with respect to GDP-bound HRAS wild-type protein to KD value with respect to KRAS) [2]
1 | CCC[C@H]1C(=O)N[C@@H]([C@@H](C)CC)C(=O)N(C)CC(=O)N(C)[C@H]2C/C=C\CCN(C2=O)[C@@H](Cc2ccc(C)cc2)C(=O)N(C)CC(=O)N[C@@H](CCc2ccc(C(F)(F)F)c(OC)c2)C(=O)N2C[C@H](OCC)C[C@H]2C(=O)NC2(CC(C)(C)C2)C(=O)N(C)[C@@H](CC(C)(C)C)C(=O)N(C)[C@H](C(=O)N(C)C)CC(=O)N1C [PP2710] | B (a compound having 3 or more and less than 10 is denoted as B) | B (a compound having 3 or more and less than 10 is denoted as B)
2 | CCCOC[C@H]1C(=O)N[C@@H]([C@@H](C)CC)C(=O)N(C)CC(=O)N(C)[C@H]2C/C=C\CCN(C2=O)[C@@H](Cc2ccc(C)cc2)C(=O)N(C)CC(=O)N[C@@H](CCc2ccc(C(F)(F)F)c(OC)c2)C(=O)N2C[C@H](OCC)C[C@H]2C(=O)NC2(CC(C)(C)C2)C(=O)N(C)[C@@H](CC(C)(C)C)C(=O)N(C)[C@H](C(=O)N(C)C)CC(=O)N1C [PP2712] | A (a compound having 10 or more and less than 20 is denoted as A) | B (a compound having 3 or more and less than 10 is denoted as B)
3 | CCC[C@H]1C(=O)N[C@@H]([C@@H](C)CC)C(=O)N(C)CC(=O)N(C)[C@H]2C/C=C\CCN(C2=O)[C@@H](Cc2ccc(C)cc2)C(=O)N(C)CC(=O)N[C@@H](CCc2ccc(Cl)c(Cl)c2)C(=O)N2C[C@H](OCC)C[C@H]2C(=O)NC2(CC(C)(C)C2)C(=O)N(C)[C@@H](CC(C)(C)C)C(=O)N(C)[C@H](C(=O)N(C)C)CC(=O)N1C [PP2714] | A (a compound having 10 or more and less than 20 is denoted as A) | A (a compound having 10 or more and less than 20 is denoted as A)
4 | CCCOC[C@H]1C(=O)N[C@@H]([C@@H](C)CC)C(=O)N(C)CC(=O)N(C)[C@H]2C/C=C\CCN(C2=O)[C@@H](Cc2ccc(C)cc2)C(=O)N(C)CC(=O)N[C@@H](CCc2ccc(Cl)c(Cl)c2)C(=O)N2C[C@H](OCC)C[C@H]2C(=O)NC2(CC(C)(C)C2)C(=O)N(C)[C@@H](CC(C)(C)C)C(=O)N(C)[C@H](C(=O)N(C)C)CC(=O)N1C [PP2716] | A (a compound having 10 or more and less than 20 is denoted as A) | A (a compound having 10 or more and less than 20 is denoted as A)
5 | CCC[C@H]1C(=O)N[C@@H]([C@@H](C)CC)C(=O)N(C2CC2)CC(=O)N(C)[C@H]2C/C=C\CCN(C2=O)[C@@H](Cc2ccc(C)cc2)C(=O)N(C)CC(=O)N[C@@H](CCc2cc(F)c(C(F)(F)F)c(F)c2)C(=O)N2C[C@H](OCC)C[C@H]2C(=O)NC2(CC(C)(C)C2)C(=O)N(C)[C@@H](CC(C)(C)C)C(=O)N(C)[C@H](C(=O)N(C)C)CC(=O)N1C [PP2718] | A (a compound having 10 or more and less than 20 is denoted as A) | A (a compound having 10 or more and less than 20 is denoted as A)
6 | CCOC[C@H]1C(=O)N[C@@H]([C@@H](C)CC)C(=O)N(C2CC2)CC(=O)N(C)[C@H]2C/C=C\CCN(C2=O)[C@@H](Cc2ccc(C)cc2)C(=O)N(C)CC(=O)N[C@@H](CCc2cc(F)c(C(F)(F)F)c(F)c2)C(=O)N2C[C@H](OCC)C[C@H]2C(=O)NC2(CC(C)(C)C2)C(=O)N(C)[C@@H](CC(C)(C)C)C(=O)N(C)[C@H](C(=O)N(C)C)CC(=O)N1C [PP2720] | A (a compound having 10 or more and less than 20 is denoted as A) | A (a compound having 10 or more and less than 20 is denoted as A)
